Entries after “also recorded” stand apart in the source; their conditions may differ.

T1 sequence (P53341 whole entry): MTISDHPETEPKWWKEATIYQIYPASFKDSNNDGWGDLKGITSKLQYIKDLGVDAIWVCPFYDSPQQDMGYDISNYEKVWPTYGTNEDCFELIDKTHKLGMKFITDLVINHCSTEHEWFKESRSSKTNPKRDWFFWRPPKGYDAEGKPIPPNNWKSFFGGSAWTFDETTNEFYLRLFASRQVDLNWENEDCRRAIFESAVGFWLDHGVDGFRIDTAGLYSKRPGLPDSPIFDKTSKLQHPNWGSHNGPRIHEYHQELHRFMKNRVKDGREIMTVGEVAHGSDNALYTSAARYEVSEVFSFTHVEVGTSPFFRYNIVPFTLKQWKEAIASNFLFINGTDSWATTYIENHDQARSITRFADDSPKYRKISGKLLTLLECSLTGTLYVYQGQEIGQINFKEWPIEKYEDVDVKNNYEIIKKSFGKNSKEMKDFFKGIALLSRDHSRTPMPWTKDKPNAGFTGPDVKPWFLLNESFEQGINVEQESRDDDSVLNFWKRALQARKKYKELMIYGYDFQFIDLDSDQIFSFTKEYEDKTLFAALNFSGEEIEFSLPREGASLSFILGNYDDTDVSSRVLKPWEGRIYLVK

One assay has as its target T1, α-glucosidase (Saccharomyces cerevisiae, UniProt P53341). Kind of assay: α-glucosidase inhibition assay.
Details: not given
For orientation: IC50 means the concentration needed to halve the response being measured. Read a low IC50 as higher potency. With `COc1ccc2nc3cc(Cl)ccc3c(SCc3cn(Cc4ccccc4)nn3)c2c1` [Compound 7a, 9-((1-benzyl-1H-1,2,3-triazol-4-yl)methylthio)-6-chloro-2-methoxyacridine], the midpoint of inhibition, the IC50, lay at 169.1 ± 0.9 µM. For the compound `COc1cccc(Cn2cc(CSc3c4ccc(Cl)cc4nc4ccc(OC)cc34)nn2)c1` [Compound 7b, 9-((1-(3-methoxybenzyl)-1H-1,2,3-triazol-4-yl)methylthio)-6-chloro-2-methoxyacridine], the IC50 was more than 750 µM.

As for `COc1ccc(Cn2cc(CSc3c4ccc(Cl)cc4nc4ccc(OC)cc34)nn2)cc1` [Compound 7c, 9-((1-(4-methoxybenzyl)-1H-1,2,3-triazol-4-yl)methylthio)-6-chloro-2-methoxyacridine], the half-inhibitory concentration (IC50) was more than 750 µM. Same read-out and setting: to `COc1ccc2nc3cc(Cl)ccc3c(SCc3cn(Cc4ccccc4C)nn3)c2c1` [Compound 7d, 6-chloro-2-methoxy-9-(((1-(2-methylbenzyl)-1H-1,2,3-triazol-4yl)methyl)thio)acridine] belongs 482 ± 0.2 µM. With `COc1ccc2nc3cc(Cl)ccc3c(SCc3cn(Cc4cccc(C)c4)nn3)c2c1` [Compound 7e, 6-chloro-2-methoxy-9-(((1-(3-methylbenzyl)-1H-1,2,3-triazol-4-yl)methyl)thio)acridine], the 50% inhibitory concentration (IC50) was more than 750 µM. The same measure, in the same setting: in the case of `COc1ccc2nc3cc(Cl)ccc3c(SCc3cn(Cc4ccc(C)cc4)nn3)c2c1` [Compound 7f, 6-chloro-2-methoxy-9-(((1-(4-methylbenzyl)-1H-1,2,3-triazol-4-yl)methyl)thio) acridine] it was 123.1 ± 0.8 µM; in that of `COc1ccc2nc3cc(Cl)ccc3c(SCc3cn(Cc4cccc(F)c4)nn3)c2c1` [Compound 7g, 9-((1-(3-fluorobenzyl) -1H-1,2,3-triazol-4-yl)methylthio) -6-chloro-2-methoxyacridine], 164 ± 0.6 µM. `COc1ccc2nc3cc(Cl)ccc3c(SCc3cn(Cc4ccc(F)cc4)nn3)c2c1` [Compound 7h, 9-((1-(4-fluorobenzyl)-1H-1,2,3-triazol-4-yl)methylthio)-6-chloro-2-methoxyacridine] yielded a concentration for half-maximal inhibition (IC50) of 98 ± 0.3 µM. Compound `COc1ccc2nc3cc(Cl)ccc3c(SCc3cn(Cc4ccccc4Cl)nn3)c2c1` [Compound 7i, 9-((1-(2-chlorobenzyl)-1H-1,2,3-triazol-4-yl)methylthio) -6-chloro-2-methoxyacridine] had an IC50 of more than 750 µM.

For the compound `COc1ccc2nc3cc(Cl)ccc3c(SCc3cn(Cc4ccccc4Br)nn3)c2c1` [Compound 7j, 9-((1-(2-bromobenzyl)-1H-1,2,3-triazol-4-yl)methylthio)-6-chloro-2-methoxyacridine], inhibition was half-maximal at 302.8 ± 0.6 µM (IC50).

Turning to `COc1ccc2nc3cc(Cl)ccc3c(SCc3cn(Cc4cccc(Cl)c4Cl)nn3)c2c1` [Compound 7k, 9-((1-(2,3-dichlorobenzyl)-1H-1,2,3-triazol-4-yl)methylthio)-6-chloro-2-methoxyacridine], the concentration for half-maximal inhibition (IC50) is more than 750 µM.

Compound `COc1ccc2nc3cc(Cl)ccc3c(SCc3cn(Cc4ccc(Cl)cc4Cl)nn3)c2c1` [Compound 7l, 9-((1-(2,4-dichlorobenzyl)-1H-1,2,3-triazol-4-yl)methylthio)-6-chloro-2-methoxyacridine] yielded an IC50 of 229.2 ± 1.3 µM. The compound `COc1ccc2nc3cc(Cl)ccc3c(SCc3cn(Cc4ccccc4[N+](=O)[O-])nn3)c2c1` [Compound 7m, 9-((1-(2-nitrobenzyl)-1H-1,2,3-triazol-4-yl)methylthio)-6-chloro-2methoxyacridine] returned an IC50 of more than 750 µM. The same measure, in the same setting: to `COc1ccc2nc3cc(Cl)ccc3c(SCc3cn(Cc4ccc([N+](=O)[O-])cc4)nn3)c2c1` [Compound 7n, 9-((1-(4-nitrobenzyl)-1H-1,2,3-triazol-4-yl)methylthio) -6-chloro-2-methoxyacridine] belongs more than 750 µM.

The target in the next assay is T1, α-glucosidase.
Experiment: not given
The settings on record: Lineweaver–Burk plot.
With `COc1ccc2nc3cc(Cl)ccc3c(SCc3cn(Cc4ccc(F)cc4)nn3)c2c1` [Compound 7h, 9-((1-(4-fluorobenzyl)-1H-1,2,3-triazol-4-yl)methylthio)-6-chloro-2-methoxyacridine], the mode of inhibition result is on record as “competitive inhibitor; also recorded: competitive inhibition”.

A further assay concerns the target T1, α-glucosidase. Put plainly: biochemical.
Details: not given
As a reminder, the Ki is a dissociation constant, usually derived from enzyme kinetics or from competition with a known ligand. The low end stands for higher affinity, the high end for lower affinity. `COc1ccc2nc3cc(Cl)ccc3c(SCc3cn(Cc4ccc(F)cc4)nn3)c2c1` [Compound 7h, 9-((1-(4-fluorobenzyl)-1H-1,2,3-triazol-4-yl)methylthio)-6-chloro-2-methoxyacridine] gave an inhibition constant Ki of 98 µM.

Values taken from article PMC11284203 (Scientific Reports, 2024).
